Measurements from patent US9580758B2, “System and method for the detection and treatment of infection by a microbial agent associated with HIV infection” (priority 2013, dated 2017).

Tested on: Rickettsiales-like agent
Type: cell-based

`O=C(N[C@H](CO)[C@H](O)c1ccc([N+](=O)[O-])cc1)C(Cl)Cl` [chloramphenicol] was tested, and the “sensitivity of the 400 bp sequence (grown with the Rickettsiales-like agent) to treatment in vitro” value was “sensitive”.
